pIC50: −log10 of the molar value.
What was measured:
[1] = biological target: T1, cyclooxygenase (Bos taurus, UniProt O62664); experiment: Inhibition of cyclooxygenase (CO), according to Dannhardt et al.; type: biochemical; details: Table 1 column IC50 LO/CO, second value
T1 construct: endogenous in cells
T1 sequence (O62664 25-600): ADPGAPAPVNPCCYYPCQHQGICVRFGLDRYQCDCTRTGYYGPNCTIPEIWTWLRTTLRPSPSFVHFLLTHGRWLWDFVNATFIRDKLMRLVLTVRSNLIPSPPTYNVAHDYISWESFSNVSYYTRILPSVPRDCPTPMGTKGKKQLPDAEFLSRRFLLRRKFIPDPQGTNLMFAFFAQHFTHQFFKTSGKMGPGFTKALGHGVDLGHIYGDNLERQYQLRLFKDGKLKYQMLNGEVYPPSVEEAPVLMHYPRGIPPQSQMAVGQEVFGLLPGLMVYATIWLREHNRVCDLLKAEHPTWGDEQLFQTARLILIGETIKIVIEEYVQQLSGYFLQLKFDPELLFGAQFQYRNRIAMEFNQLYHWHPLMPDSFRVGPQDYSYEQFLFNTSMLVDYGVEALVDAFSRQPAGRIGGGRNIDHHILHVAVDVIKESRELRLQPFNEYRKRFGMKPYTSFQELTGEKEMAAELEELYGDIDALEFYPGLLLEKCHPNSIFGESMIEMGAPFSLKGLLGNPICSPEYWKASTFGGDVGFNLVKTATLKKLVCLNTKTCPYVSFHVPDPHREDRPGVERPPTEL
From the text: (§1) The efficacy of the compounds according to the invention can be determined from the inhibition of 5-lipoxygenase or cyclooxygenase. Experiments have be carried out according to Dannhardt et al., J. Pharm. Pharmacol. 1992, 44: 419-424.

[2] = biological target: T2, 5-lipoxygenase (Bos taurus, UniProt F1MQ78); experiment: Inhibition of 5-lipoxygenase (LO), according to Dannhardt et al.; type: biochemical; details: Table 1 column IC50 LO/CO, first value
T2 construct: endogenous in cells
T2 sequence (F1MQ78 1-674): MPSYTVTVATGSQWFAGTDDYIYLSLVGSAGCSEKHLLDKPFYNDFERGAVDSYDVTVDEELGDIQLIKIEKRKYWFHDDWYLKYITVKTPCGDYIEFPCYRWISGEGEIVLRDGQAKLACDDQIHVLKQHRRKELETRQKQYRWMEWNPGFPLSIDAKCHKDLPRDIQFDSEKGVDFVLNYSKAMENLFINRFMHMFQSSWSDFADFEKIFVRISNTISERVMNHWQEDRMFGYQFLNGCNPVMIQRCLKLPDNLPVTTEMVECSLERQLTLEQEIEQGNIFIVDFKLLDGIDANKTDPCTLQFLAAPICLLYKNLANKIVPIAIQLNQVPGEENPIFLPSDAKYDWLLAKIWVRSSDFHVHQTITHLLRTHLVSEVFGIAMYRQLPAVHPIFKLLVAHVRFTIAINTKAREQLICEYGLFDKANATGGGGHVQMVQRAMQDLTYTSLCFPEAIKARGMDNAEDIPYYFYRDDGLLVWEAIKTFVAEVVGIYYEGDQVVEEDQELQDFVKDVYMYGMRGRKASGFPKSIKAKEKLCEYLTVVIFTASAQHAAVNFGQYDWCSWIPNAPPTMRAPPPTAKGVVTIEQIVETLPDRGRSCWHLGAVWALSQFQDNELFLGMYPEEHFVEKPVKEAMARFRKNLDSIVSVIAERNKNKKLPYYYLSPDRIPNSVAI
From the text: as §1

[3] = system: mouse; experiment: Formalin analgesia test in the mouse p.o.; type: in vivo
From the text: The spectrum of efficacy of the compounds was also investigated using the following tests:
2) Formalin analgesia test in the mouse p.o., B. Rubin et al., Endocrinol.,49:429-439, 1951;

pIC50 [1]	pIC50 [2]	Compound	times more analgesically effective than the corresponding 4-chlorophenyl derivative ([3]; in vivo, compared with the corresponding 4-chlorophenyl derivative) [times]	minimal effective dose ([3]; po, formalin analgesia model of the mouse, comparison compound, read-out: MED) [mg/kg]
6.70	6.40	CC1(C)Cc2c(-c3ccccc3)c(-c3ccc(Cl)s3)c(CC(=O)O)n2C1 [Example 1]	10	
		CC1(C)Cc2c(-c3ccccc3)c(-c3ccc(Cl)cc3)c(CC(=O)O)n2C1 [corresponding 4-chlorophenyl derivative, reference compound]		100
